Reference: the PolyMetriX glass transition set
± gives the standard deviation of the reports.

SMILES | glass transition temperature [°C]
*CC(*)CCc1ccccc1 (repeat unit) | 10.00
*CC(*)c1cc(C(=O)OCCCC)ccc1-c1ccc(OCCCCCCCC)cc1 (repeat unit) | 74.00
*c1ccc2c(c1)C(=O)N(c1ccc(Oc3ccc(N4C(=O)c5ccc(C(*)O[Si](C)(C)O[Si](C)(C)O[Si](C)(C)C)cc5C4=O)cc3)cc1)C2=O (repeat unit) | 167.00
*CCCCCCOC(=O)NCc1ccc(CNC(=O)O*)cc1 (repeat unit) | 56.00
*O[Si](C)(C)O[Si](C)(C)C#Cc1ccc(C#C[Si](*)(C)C)cc1 (repeat unit) | 104.00
*OC(=O)OCCOCCOCCOCCOC(=O)OC1COC2C(*)COC12 (repeat unit) | 9.50
*c1cc(OCCCC)c(*)cc1OCCCC (repeat unit) | 37.00
*CC(*)c1ccccc1C(=O)OCCC (repeat unit) | 108.00
*c1ccc(Oc2ccc(C(=O)c3cccc(C(=O)c4ccc(Oc5ccc(N6C(=O)c7ccc(Oc8ccc9c(c8)C(=O)N(*)C9=O)cc7C6=O)cc5C(F)(F)F)cc4)n3)cc2)c(C(F)(F)F)c1 (repeat unit) | 212.20
*CC(*)(C)C(=O)OCCCCCCOc1ccc(/N=N/c2ccc(OCCCCCCCCCC)cc2)cc1 (repeat unit) | 110.00
*c1ccc(Oc2cccc(N3C(=O)c4ccc(Oc5cccc6c(Oc7ccc8c(c7)C(=O)N(*)C8=O)cccc56)cc4C3=O)c2)cc1 (repeat unit) | 235.00
*/C(C)=C(/*)CCC (repeat unit) | 200.00
*CC(*)CNc1ccc([N+](=O)[O-])c(C(F)(F)F)c1 (repeat unit) | 153.00
*CCC[Si](*)(c1ccc(C)cc1)c1ccc(C)cc1 (repeat unit) | 38.00
*c1ccc(Oc2c(F)c(F)c(C(=O)c3c(F)c(F)c(Oc4ccc(C5(*)OC(=O)c6ccccc65)cc4)c(F)c3F)c(F)c2F)cc1 (repeat unit) | 215.00
*Cc1ccc(C(C)(C)c2ccc(CN3C(=O)c4ccc(Oc5ccc6c(c5)C(=O)N(*)C6=O)cc4C3=O)o2)o1 (repeat unit) | 116.00
*CC(*)(C)C(=O)Oc1ccc(C(=O)Oc2ccc(OC)cc2)cc1 (repeat unit) | 77.00
*CC(*)(C)C(=O)OCC1CO1 (repeat unit) | 68.50
*CCCOC(=O)OCCCCCCOC(=O)OCCCN1C(=O)c2ccc(C(=O)c3ccc4c(c3)C(=O)N(*)C4=O)cc2C1=O (repeat unit) | 70.00

SMILES | glass transition temperature [°C]
*Oc1ccc(SSc2ccc(*)cc2)cc1 (repeat unit) | 76.80
*CC(*)(C)C(=O)OCCN(CC)c1ccc(/N=N/c2ccc([N+](=O)[O-])cc2)cc1 (repeat unit) | 126.00
*CCCCCCCCCNC(=O)c1ccc(C(=O)N*)cc1 (repeat unit) | 115.00
*Cc1cc2cc(C(=O)Nc3ccc(C(c4ccc(NC(=O)c5cc6cc(*)c(OC(=O)COc7ccc8ccc(=O)oc8c7)cc6oc5=O)cc4)(C(F)(F)F)C(F)(F)F)cc3)c(=O)oc2cc1OC(=O)COc1ccc2ccc(=O)oc2c1 (repeat unit) | 257.00
*C(=O)Nc1ccc(Oc2ccc(C(c3ccc(Oc4ccc(NC(=O)c5ccc6c(c5)C(=O)N(c5ccc(Oc7cccc8c(Oc9ccc(N%10C(=O)c%11ccc(*)cc%11C%10=O)cc9)cccc78)cc5)C6=O)cc4)cc3)(C(F)(F)F)C(F)(F)F)cc2)cc1 (repeat unit) | 231.00
*Sc1ccc(Sc2ccc(Sc3ccc4c(c3)C(=O)N(N3C(=O)c5cccc(*)c5C3=O)C4=O)cc2)cc1 (repeat unit) | 242.00
*CC(*)c1ccc(C(=O)OCCC)cc1 (repeat unit) | 92.00
*c1ccc2c(c1)C(=O)N(c1ccc(C(=O)Nc3ccc(Oc4ccc(C(c5ccc(Oc6ccc(NC(=O)c7ccc(N8C(=O)c9ccc(C(*)(C(F)(F)F)C(F)(F)F)cc9C8=O)cc7)cc6)cc5)(C(F)(F)F)C(F)(F)F)cc4)cc3)cc1)C2=O (repeat unit) | 293.00
*Oc1ccc(-c2ccc(OC(=O)CCCCCCCCCCCCC(*)=O)cc2)cc1 (repeat unit) | 95.00
*CO* (repeat unit) [Polyoxymethylene ] | -56 ± 8.9
*CC(*)(C)C(=O)OCCCCCCCCCCCCOc1ccc(C(=O)Oc2ccc(-c3cccc(OC(=O)c4ccc(OC(=O)c5ccc(OCCCCCCCCCCCC)cc5)cc4)c3)cc2)cc1 (repeat unit) | 74.50
*O[Si](*)(C)CCCCC1COC(=O)O1 (repeat unit) | -23.4
*C[Si](*)(C)CCCN(CC)CC (repeat unit) | -31.7
*CC(=O)NCC(=O)O* (repeat unit) | 67.00
*Oc1ccc(S(=O)(=O)c2ccc(Oc3ccc(C(C)(C)c4ccc(*)cc4)cc3[N+](=O)[O-])cc2)cc1 (repeat unit) | 190.00
*CC(C)C(=O)N* (repeat unit) | 96.00
*CC(*)(CC(=O)OCCCCl)C(=O)OCCCCl (repeat unit) | 47.00
*CC(=O)C(*)c1ccc(C(C)(C)C)cc1 (repeat unit) | 158.00

The next lines start with the values.

glass transition temperature [°C] | SMILES
293.00 | *C(=O)Nc1cccc(NC(=O)c2ccc3c(c2)C(=O)N(c2ccc(Oc4cccc5c(N6C(=O)c7ccc(*)cc7C6=O)cccc45)cc2)C3=O)n1 (repeat unit)
144.00 | *CCN(CCOC(=O)Nc1ccc(C)c(NC(=O)O*)c1)c1ccc(/N=N/c2ccc([N+](=O)[O-])cc2)cc1 (repeat unit)
305.00 | *c1ccc(-c2ccc(-c3ccc(-c4cnc5ccc(-c6ccc7ncc(*)nc7c6)cc5n4)cc3)cc2)cc1 (repeat unit)
269.00 | *c1ccc(C(c2ccc(-c3nc4ccc(-c5ccc6nc(*)[nH]c6c5)cc4[nH]3)cc2)(C(F)(F)F)C(F)(F)F)cc1 (repeat unit)
158.00 | *Oc1cccc(OC(=O)c2ccc(C(C)(C)c3ccc(C(*)=O)cc3)cc2)c1 (repeat unit)
217.00 | *Nc1ccccc1CCc1ccc(NC(=O)Nc2ccc(CCc3ccc(NC(*)=O)cc3)cc2)cc1 (repeat unit)
179.00 | *Oc1ccc(C(c2ccccc2)c2ccc(OC(*)=S)cc2)cc1 (repeat unit)
74.10 | *CCOC(=O)Nc1ccc(CCCc2ccc(NC(=O)O*)cc2)cc1 (repeat unit)
232.00 | *CC(=O)Nc1ccc(S(=O)(=O)c2ccc(NC(=O)c3ccc4c(c3)C(=O)N(*)C4=O)cc2)cc1 (repeat unit)
171.00 | *CCN(CCOC(=O)Nc1ccc(C)c(NC(=O)O*)c1)c1ccc(/N=N/c2ccc(/C=C/c3nc4ccc([N+](=O)[O-])cc4n3CC)cc2)cc1 (repeat unit)
185.00 | *C(=O)Nc1cc(NC(=O)c2cncc(*)c2)cc(-c2nnc(-c3ccccn3)o2)c1 (repeat unit)
226.00 | *Cc1cc2cc(C(=O)Nc3ccc(Oc4ccc(NC(=O)c5cc6cc(*)c(OC(=O)COc7ccc8ccc(=O)oc8c7)cc6oc5=O)cc4)cc3)c(=O)oc2cc1OC(=O)COc1ccc2ccc(=O)oc2c1 (repeat unit)
230.00 | *CC(=O)Nc1ccc(Oc2ccc(Oc3ccc(NC(=O)CN4C(=O)c5ccc(C(=O)c6ccc7c(c6)C(=O)N(*)C7=O)cc5C4=O)cc3)cc2)cc1 (repeat unit)
270.00 | *C(=O)c1ccc2c(c1)C(=O)N(c1ccc(N(c3ccccc3)c3ccc(N4C(=O)c5ccc(*)cc5C4=O)cc3)cc1)C2=O (repeat unit)
55.00 | *O[Si](C)(C)O[Si](C)(C)Oc1c(C)cc(-c2cc(C)c(*)c(C)c2)cc1C (repeat unit)
142.00 | *CCc1ccc(NC(=O)c2cccc(C(=O)Nc3ccc(CCOC(=O)c4cccc(C(=O)O*)c4)cc3)c2)cc1 (repeat unit)
148.00 | *Nc1cc(NC(=O)NC2CCC(CC3CCC(NC(*)=O)CC3)CC2)cc(C(=O)Nc2ccc3c(c2)C(=O)c2ccccc2C3=O)c1 (repeat unit)
250.00 | *C(=O)Nc1ccc(Oc2ccc(NC(=O)c3ccc4c(c3)C(=O)N(c3ccc(Oc5ccc(C6(c7ccc(Oc8ccc(N9C(=O)c%10ccc(*)cc%10C9=O)cc8)cc7)CC7CC6C6CCCC76)cc5)cc3)C4=O)cc2)cc1 (repeat unit)
180.00 | *C(=O)c1ccc(Oc2c(C)cc(-c3cc(C)c(Oc4ccc(C(=O)c5ccc6nc(*)ccc6c5)cc4)c(C)c3)cc2C)cc1 (repeat unit)
224.50 | *c1cccc(C(c2cccc(N3C(=O)c4ccc(Oc5ccc6c(c5)C(=O)N(*)C6=O)cc4C3=O)c2)(C(F)(F)F)C(F)(F)F)c1 (repeat unit)
133.00 | *c1ccc(Sc2ccc(Sc3ccc(Sc4ccc(S(*)=O)cc4)cc3)cc2)cc1 (repeat unit)
-4.30 | *c1cc(-c2ccc(C(=C3C=C(C(C)(C)C)C(=O)C(C(C)(C)C)=C3)c3cc(C(C)(C)C)c(OC(C)=O)c(C(C)(C)C)c3)cc2)c(*)s1 (repeat unit)
165.00 | *Oc1ccc(-c2ccc(OC(=O)OC3C(C)(C)C(OC(*)=O)C3(C)C)cc2)cc1 (repeat unit)
267.00 | *Oc1ccc(OC(=O)c2ccc(C(*)=O)cc2)cc1C1CC2CCC1C2 (repeat unit)
76.00 | *O[Si](C)(C)c1cc(OCCOCc2ccccc2)c([Si](*)(C)C)cc1OCCOCc1ccccc1 (repeat unit)
101.00 | *CC(C)(C)COC(=O)c1ccc(-c2ccc(C(=O)O*)cc2)cc1 (repeat unit)
202.00 | *c1ccc(*)c(C(=O)c2ccc(C)cc2)c1 (repeat unit)
160.00 | *C(=O)N1C(=O)N(C(=O)c2ccc3c(c2)C(=O)N(c2ccc(Oc4ccc(N5C(=O)c6ccc(*)cc6C5=O)cc4)cc2)C3=O)C(CC)(CC)C1=O (repeat unit)
